Reference: US20230192700A1, “PYRAZOLOPYRAZINES ACTING ON CANCERS VIA INHIBITION OF CDK12” (Bayer Aktiengesellschaft, priority 2020, published 2023)
Where two headings read alike, the source gives them in different places.

Tests used:
[1] = system: BRCA1 mRNA expression in MDA-MB-231 cells; experiment: qRT-PCR assay: inhibition of BRCA1 mRNA expression in MDA-MB-231 cells; format: cell-based, human; conditions: 24 h exposure, BRCA1 mRNA normalised to GAPDH, median, read-out: RTqPCR-MDA-MB-231 IC50 [mol/l] BRCA1 (median)
Description: 3. qRT-PCR Assay: BRCA1, ATR, MCL1 in MDA-MB-231, CAL-120
Tissue cultured human MDA-MB-231 human breast cancer cells were plated in 500 microL per well at 200,000 cells/well in a 24 well microtiter plate. After 24 h, the cells were exposed continuously for 24 h to test substances (substances were added with Tecan HP D300 Dispenser). RNA was prepared using Qiagen RNeasy MiniKit (#74106), RNA was quantified using a NanoDrop Equipment, and 600 nano gamms of RNA was coverted to cDNA using a SuperScript VILO kit (Thermofisher #11755050) followed by qPCR amplification. BRCA1 and ATR gene expression was measured by RT-qPCR and normalised to GAPDH housekeeping gene expression. qPCR primer sets have been purchased from Thermo Fisher Scientific/Applied Biosystems: BRCA1, # Hs 01556193; ATR, #Hs 00992123; GAPDH, #Hs 03929097.

CDK12/CyclinK = molecular target: T1, CDK12/CyclinK (Homo sapiens, UniProt Q9NYV4); experiment: CDK12/CycK high ATP kinase assay (TR-FRET); format: biochemical; conditions: 2 mM ATP (high ATP); median; read-out: CDK12/CyclinK, 2 mM ATP (high ATP), IC50 - [mol/l] (median)
T1 construct: His-CDK12 (aa Q696-S1082); made in house; host or cells: Hi-5 insect cells (baculovirus co-infection with CycK and yeast CAK1)
Summary of the method: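 Human His-tagged CDK12/CycK (about 0.75 nM) preincubated with compound 15 min, then reacted 60 min at 22 °C with 2 mM ATP and 1 µM biotinylated peptide in HEPES pH 7.5 buffer. Phospho-Ser62 c-Myc epitope detected by TR-FRET (665/620 nm ratio); data normalised to no-inhibitor and no-enzyme controls.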

T1 sequence (Q9NYV4 with tags, fused parts or gaps): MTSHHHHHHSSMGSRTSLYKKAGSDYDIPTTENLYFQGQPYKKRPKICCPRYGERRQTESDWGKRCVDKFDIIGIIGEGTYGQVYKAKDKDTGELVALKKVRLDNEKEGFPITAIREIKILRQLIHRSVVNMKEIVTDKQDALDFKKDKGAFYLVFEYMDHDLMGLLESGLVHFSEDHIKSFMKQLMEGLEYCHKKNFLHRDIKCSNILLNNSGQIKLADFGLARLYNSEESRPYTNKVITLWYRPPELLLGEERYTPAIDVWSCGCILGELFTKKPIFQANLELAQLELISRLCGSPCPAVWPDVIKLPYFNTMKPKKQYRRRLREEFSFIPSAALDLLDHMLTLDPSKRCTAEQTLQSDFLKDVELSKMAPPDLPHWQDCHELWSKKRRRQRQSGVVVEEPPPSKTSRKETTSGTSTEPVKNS
T1 sequence (O75909 with tags, fused parts or gaps partner limits assumed): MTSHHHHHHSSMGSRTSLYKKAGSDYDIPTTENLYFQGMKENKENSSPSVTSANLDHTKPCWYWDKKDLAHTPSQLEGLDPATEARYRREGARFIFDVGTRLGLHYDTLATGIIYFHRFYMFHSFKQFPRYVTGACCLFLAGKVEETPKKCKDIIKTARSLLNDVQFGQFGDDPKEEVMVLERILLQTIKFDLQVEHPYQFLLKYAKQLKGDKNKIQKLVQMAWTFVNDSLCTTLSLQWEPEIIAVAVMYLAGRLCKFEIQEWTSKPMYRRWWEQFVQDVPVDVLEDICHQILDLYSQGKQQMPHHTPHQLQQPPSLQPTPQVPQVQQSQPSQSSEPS

Row | Compound | IC50 (CDK12/CyclinK) [nM] | IC50 ([1]; Homo sapiens, MDA-MB-231, 24 h) [nM] | IC50 [1] [nM]
1 | Cc1ccc2[nH]c(CNc3nn(C4CCN(C)CC4)c4nc(C5CC5)cnc34)nc2c1C [Example 28, 6-cyclopropyl-N-[(4,5-dimethyl-1H-benzimidazol-2-yl)methyl]-1-(1-methylpiperidin-4-yl)-1H-pyrazolo[3,4-b]pyrazin-3-amine] | > 20000 | 16.8 | 
2 | O[C@H]1C[C@@H](n2nc(NCc3nc4ccccc4[nH]3)c3ncc(C4CC4)nc32)C1 [Example 40, cis-3-(3-{[(1H-benzimidazol-2-yl)methyl]amino}-6-cyclopropyl-1H-pyrazolo[3,4-b]pyrazin-1-yl)cyclobutan-1-ol] | > 20000 | 8.65 | 
3 | COCCC(C)n1nc(NCc2nc3ccccc3[nH]2)c2ncc(C3CC3)nc21 (single isomer, unassigned; (-)) [Example 58, (−)-N-[(1H-benzimidazol-2-yl)methyl]-6-cyclopropyl-1-[4-methoxybutan-2-yl]-1H-pyrazolo[3,4-b]pyrazin-3-amine] | > 20000 |  | 28.2
4 | CN1CCC(n2nc(NCc3nc4c(Br)cccc4[nH]3)c3ncc(C4CC4)nc32)CC1 [Example 20, N-[(4-bromo-1H-benzimidazol-2-yl)methyl]-6-cyclopropyl-1-(1-methylpiperidin-4-yl)-1H-pyrazolo[3,4-b]pyrazin-3-amine] | > 20000 | 20.6 | 
5 | CN1CCC(n2nc(NCc3nc4cc(Cl)c(Cl)cc4[nH]3)c3ncc(C4CC4)nc32)CC1 [Example 19, 6-cyclopropyl-N-[(5,6-dichloro-1H-benzimidazol-2-yl)methyl]-1-(1-methylpiperidin-4-yl)-1H-pyrazolo[3,4-b]pyrazin-3-amine] | > 20000 | 8.59 | 
6 | CN1CCC(n2nc(NCc3nc4cc(F)c(F)cc4[nH]3)c3ncc(C4CC4)nc32)CC1 [Example 30, 6-cyclopropyl-N-[(5,6-difluoro-1H-benzimidazol-2-yl)methyl]-1-(1-methylpiperidin-4-yl)-1H-pyrazolo[3,4-b]pyrazin-3-amine] | > 20000 | 11.7 | 
7 | Cn1nc(NCc2nc3ccccc3[nH]2)c2ncc(C3CC3)nc21 [Example 15, N-[(1H-benzimidazol-2-yl)methyl]-6-cyclopropyl-1-methyl-1H-pyrazolo[3,4-b]pyrazin-3-amine] | > 20000 | 131 | 
8 | CN1CCC(n2nc(NCc3nc4c(Cl)c(F)ccc4[nH]3)c3ncc(C4CC4)nc32)CC1 [Example 31, N-[(4-chloro-5-fluoro-1H-benzimidazol-2-yl)methyl]-6-cyclopropyl-1-(1-methylpiperidin-4-yl)-1H-pyrazolo[3,4-b]pyrazin-3-amine] | > 20000 | 4.99 | 
9 | CC(C)(O)CCn1nc(NCc2nc3ccccc3[nH]2)c2ncc(C3CC3)nc21 [Example 76, 4-(3-{[(1H-benzimidazol-2-yl)methyl]amino}-6-cyclopropyl-1H-pyrazolo[3,4-b]pyrazin-1-yl)-2-methylbutan-2-ol] | > 20000 | 7.4 | 
10 | Cc1c(F)ccc2[nH]c(CNc3nn(C4CCN(C)CC4)c4nc(C5CC5)cnc34)nc12 [Example 26, 6-cyclopropyl-N-[(5-fluoro-4-methyl-1H-benzimidazol-2-yl)methyl]-1-(1-methylpiperidin-4-yl)-1H-pyrazolo[3,4-b]pyrazin-3-amine] | > 20000 | 20 | 
11 | c1ccc2[nH]c(CNc3nn(C4CCCC4)c4nc(C5CC5)cnc34)nc2c1 [Example 39, N-[(1H-benzimidazol-2-yl)methyl]-1-cyclopentyl-6-cyclopropyl-1H-pyrazolo[3,4-b]pyrazin-3-amine] | > 20000 | 107 | 

More lines, main results first:

Row | IC50 (CDK12/CyclinK) [nM] | Compound | IC50 ([1]; Homo sapiens, MDA-MB-231, 24 h) [nM] | IC50 [1] [nM]
12 | > 20000 | COC(C)(C)CCn1nc(NCc2nc3ccccc3[nH]2)c2ncc(C3CC3)nc21 [Example 67, N-[(1H-benzimidazol-2-yl)methyl]-6-cyclopropyl-1-(3-methoxy-3-methylbutyl)-1H-pyrazolo[3,4-b]pyrazin-3-amine] | 78 | 
13 | > 20000 | CN1CCCC(n2nc(NCc3nc4ccccc4[nH]3)c3ncc(C4CC4)nc32)CC1 (single isomer, unassigned) [Example 37, (+) or (−)-N-[(1H-benzimidazol-2-yl)methyl]-6-cyclopropyl-1-[(4R*)-1-methylazepan-4-yl]-1H-pyrazolo[3,4-b]pyrazin-3-amine] | 11.3 | 
14 | > 20000 | CN1CCC(n2nc(NCc3nc4cc(F)ccc4[nH]3)c3ncc(C4CC4)nc32)CC1 [Example 4, 6-cyclopropyl-N-[(5-fluoro-1H-benzimidazol-2-yl)methyl]-1-(1-methylpiperidin-4-yl)-1H-pyrazolo[3,4-b]pyrazin-3-amine] | 17.1 | 
15 | 12300 | Fc1cccc2[nH]c(CNc3nn(C4CCOCC4)c4nc(C5CC5)cnc34)nc12 [Example 23, 6-cyclopropyl-N-[(4-fluoro-1H-benzimidazol-2-yl)methyl]-1-(oxan-4-yl)-1H-pyrazolo[3,4-b]pyrazin-3-amine] | 30.9 | 
16 | > 20000 | CN1CCCC(n2nc(NCc3nc4ccccc4[nH]3)c3ncc(C4CC4)nc32)CC1 (single isomer, unassigned) [Example 38, (−) or (+)-N-[(1H-benzimidazol-2-yl)methyl]-6-cyclopropyl-1-[(4R*)-1-methylazepan-4-yl]-1H-pyrazolo[3,4-b]pyrazin-3-amine] |  | 21.8
17 | 13700 | CC(C)(O)C1CC(n2nc(NCc3nc4ccccc4[nH]3)c3ncc(C4CC4)nc32)C1 (mixture of isomers) [Example 48, 2-[cis/trans-3-(3-{[(1H-benzimidazol-2-yl)methyl]amino}-6-cyclopropyl-1H-pyrazolo[3,4-b]pyrazin-1-yl)cyclobutyl]propan-2-ol] | 39.5 | 
18 | > 20000 | OC[C@H]1C[C@H](n2nc(NCc3nc4ccccc4[nH]3)c3ncc(C4CC4)nc32)C1 [Example 46, [trans-3-(3-{[(1H-benzimidazol-2-yl)methyl]amino}-6-cyclopropyl-1H-pyrazolo[3,4-b]pyrazin-1-yl)cyclobutyl]methanol] | 4.02 | 
19 | > 20000 | CN1CCC(n2nc(NCc3nc4ccccc4[nH]3)c3ncc(C4CC4)nc32)CC1 [Example 1, N-[(1H-benzimidazol-2-yl)methyl]-6-cyclopropyl-1-(1-methylpiperidin-4-yl)-1H-pyrazolo[3,4-b]pyrazin-3-amine] | 13.7 | 
20 | > 20000 | c1ccc2[nH]c(CNc3nn(C4CCOC4)c4nc(C5CC5)cnc34)nc2c1 (single isomer, unassigned) [Example 18, (-) or (+) -N-[(1H-benzimidazol-2-yl)methyl]-6-cyclopropyl-1-[oxolan-3-yl]-1H-pyrazolo[3,4-b]pyrazin-3-amine] |  | > 10.7
21 | > 20000 | O=CO.c1ccc(-n2nc(NCc3nc4ccccc4[nH]3)c3ncc(C4CC4)nc32)cc1 [Example 13, formic acid—N-[(1H-benzimidazol-2-yl)methyl]-6-cyclopropyl-1-phenyl-1H-pyrazolo[3,4-b]pyrazin-3-amine (1/1)] | 39 | 
22 | 12800 | OC[C@H]1C[C@@H](n2nc(NCc3nc4ccccc4[nH]3)c3ncc(C4CC4)nc32)C1 [Example 47, [cis-3-(3-{[(1H-benzimidazol-2-yl)methyl]amino}-6-cyclopropyl-1H-pyrazolo[3,4-b]pyrazin-1-yl)cyclobutyl]methanol] | 13.8 | 
23 | 6170 | O[C@H]1CC[C@H](n2nc(NCc3nc4ccccc4[nH]3)c3ncc(C4CC4)nc32)CC1 [Example 50, trans-4-(3-{[(1H-benzimidazol-2-yl)methyl]amino}-6-cyclopropyl-1H-pyrazolo[3,4-b]pyrazin-1-yl)cyclohexan-1-ol] | 17.5 | 
24 | ≥ 11600 | CN1CCC(n2nc(NCc3nc4c(F)cccc4[nH]3)c3ncc(C4CC4)nc32)CC1 [Example 3, 6-cyclopropyl-N-[(4-fluoro-1H-benzimidazol-2-yl)methyl]-1-(1-methylpiperidin-4-yl)-1H-pyrazolo[3,4-b]pyrazin-3-amine] | 8.64 | 
25 | 18200 | COc1cccc2[nH]c(CNc3nn(C4CCOCC4)c4nc(C5CC5)cnc34)nc12 [Example 24, 6-cyclopropyl-N-[(4-methoxy-1H-benzimidazol-2-yl)methyl]-1-(oxan-4-yl)-1H-pyrazolo[3,4-b]pyrazin-3-amine] | 4.77 | 
26 | > 10000 | Fc1ccc2[nH]c(CNc3nn(C4CCOCC4)c4nc(C5CC5)cnc34)nc2c1 [Example 53, 6-cyclopropyl-N-[(5-fluoro-1H-benzimidazol-2-yl)methyl]-1-(oxan-4-yl)-1H-pyrazolo[3,4-b]pyrazin-3-amine] | 10.9 | 
